Measured values as given in ChEMBL document CHEMBL1156696, “Structure activity relationships of quinoline-containing c-Met inhibitors” (Eur J Med Chem, 2008).

How the values were obtained:
[1] = molecular target: T1, Hepatocyte growth factor receptor (Homo sapiens, UniProt P08581); test: Inhibition of human activated c-Met by PK/LDH coupled kinetic assay
[2] = molecular target: T1, Hepatocyte growth factor receptor; test: Inhibition of human activated c-Met at 1 uM by PK/LDH coupled kinetic assay

T1 sequence (P08581 whole entry): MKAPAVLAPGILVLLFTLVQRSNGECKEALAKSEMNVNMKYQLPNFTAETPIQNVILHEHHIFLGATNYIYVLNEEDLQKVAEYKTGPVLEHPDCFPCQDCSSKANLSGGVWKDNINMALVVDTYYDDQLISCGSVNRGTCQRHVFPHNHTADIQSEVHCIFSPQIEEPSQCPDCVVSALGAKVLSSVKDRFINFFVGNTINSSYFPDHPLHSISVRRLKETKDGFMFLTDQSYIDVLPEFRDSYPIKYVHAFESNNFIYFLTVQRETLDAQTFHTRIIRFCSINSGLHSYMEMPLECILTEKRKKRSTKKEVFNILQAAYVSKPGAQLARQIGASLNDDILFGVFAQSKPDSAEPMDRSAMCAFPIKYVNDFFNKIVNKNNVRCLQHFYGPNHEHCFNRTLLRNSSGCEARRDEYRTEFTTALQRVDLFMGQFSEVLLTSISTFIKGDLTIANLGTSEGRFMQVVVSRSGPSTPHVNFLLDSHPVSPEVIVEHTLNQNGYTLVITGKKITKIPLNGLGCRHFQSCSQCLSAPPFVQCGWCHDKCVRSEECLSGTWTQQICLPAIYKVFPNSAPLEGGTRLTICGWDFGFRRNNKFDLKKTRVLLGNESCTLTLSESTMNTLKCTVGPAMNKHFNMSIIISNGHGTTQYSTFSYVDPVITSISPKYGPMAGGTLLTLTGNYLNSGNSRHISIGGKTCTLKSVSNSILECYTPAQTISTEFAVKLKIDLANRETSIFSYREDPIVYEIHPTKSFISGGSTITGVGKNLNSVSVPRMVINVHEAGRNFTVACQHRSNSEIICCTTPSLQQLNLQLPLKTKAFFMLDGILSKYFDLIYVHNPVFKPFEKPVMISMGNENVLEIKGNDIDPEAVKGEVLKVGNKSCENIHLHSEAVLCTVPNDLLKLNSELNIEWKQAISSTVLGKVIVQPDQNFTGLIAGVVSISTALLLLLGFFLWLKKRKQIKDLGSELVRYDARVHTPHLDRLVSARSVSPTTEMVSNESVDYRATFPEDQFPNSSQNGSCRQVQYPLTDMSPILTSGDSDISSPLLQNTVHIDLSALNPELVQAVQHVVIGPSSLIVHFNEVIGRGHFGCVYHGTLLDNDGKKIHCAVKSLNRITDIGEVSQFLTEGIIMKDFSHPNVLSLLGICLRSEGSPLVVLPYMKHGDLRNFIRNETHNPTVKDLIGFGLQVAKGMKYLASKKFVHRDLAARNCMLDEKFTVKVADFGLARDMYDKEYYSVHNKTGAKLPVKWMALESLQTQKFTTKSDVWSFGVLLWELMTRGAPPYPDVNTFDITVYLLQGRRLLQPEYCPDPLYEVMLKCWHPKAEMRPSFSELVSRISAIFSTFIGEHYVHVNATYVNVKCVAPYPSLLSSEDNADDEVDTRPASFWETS

| Ki [1] | inhibition [2] | Compound |
| --- | --- | --- |
| > 30 µM | – | COc1cc2nccc(Oc3ccc(NC(=O)N4CCNCC4)nc3)c2cc1OC |
| – | 2% | COc1cc2nccc(Oc3ccc(N)nc3)c2cc1OC |
